Measured values as given in paper PMC7408066, “Attenuation of Inflammatory Symptoms by Icariside B2 in Carrageenan and LPS-Induced Inflammation Models via Regulation of MAPK/NF-κB Signaling Cascades” (Biomolecules, 2020).

Target: T1, COX-2 (Ovis aries, UniProt P79208)
T1 construct: gene PTGS2; ovine purified COX-2
T1 sequence (P79208 17-603): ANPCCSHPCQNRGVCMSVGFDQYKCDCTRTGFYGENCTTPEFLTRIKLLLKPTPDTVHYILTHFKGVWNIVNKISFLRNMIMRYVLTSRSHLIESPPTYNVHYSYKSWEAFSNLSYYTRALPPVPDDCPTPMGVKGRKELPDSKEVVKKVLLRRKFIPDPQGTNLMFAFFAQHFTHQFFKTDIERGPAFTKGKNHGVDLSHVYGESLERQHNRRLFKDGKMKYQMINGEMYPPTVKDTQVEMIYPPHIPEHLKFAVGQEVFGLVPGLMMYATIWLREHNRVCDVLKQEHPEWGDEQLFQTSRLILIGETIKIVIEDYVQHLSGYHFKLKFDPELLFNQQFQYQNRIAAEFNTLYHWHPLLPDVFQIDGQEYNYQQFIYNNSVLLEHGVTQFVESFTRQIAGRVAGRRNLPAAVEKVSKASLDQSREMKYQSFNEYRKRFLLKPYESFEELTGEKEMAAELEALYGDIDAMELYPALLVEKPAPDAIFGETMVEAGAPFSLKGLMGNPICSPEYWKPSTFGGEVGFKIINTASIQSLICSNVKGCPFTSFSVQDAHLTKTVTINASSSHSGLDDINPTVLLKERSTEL
Test: Cayman colorimetric COX (ovine) inhibitor screening assay, purified enzyme
Type: biochemical

- IC50: 7.8 ± 0.26 µM
Structure (SMILES): CC(=O)/C=C/C12OC1(C)CC(OC1OC(CO)C(O)C(O)C1O)CC2(C)C (stereo not shown) [ICSB, icariside B2]
